Measurements: the supplement of paper PMC11451515

Experiments:
Conditions in all cases: 48 h
P12-Ichikawa [1] = assay: cell viability relative to DMSO control; higher = less cytotoxic
Procedure, shortened: (§1)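 Viability values are per-plate percentages of DMSO wells, with background from cell-free wells. Library compounds in DMSO were pin-dosed, in an 11-point threefold series from 47 μM to 0.79 nM, onto NOMO1 or SEM (500 cells/well) or P12-Ichikawa (1000 cells/well) leukemia cells in 1536-well plates (5 μl). Those cells had been adapted for at least four passages in each medium, and CellTiter-Glo One luminescence was read after 48 h at 37°C.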

NOMO1 [2] = assay: as above
Procedure, shortened: as §1

SEM cells [3] = assay: as above
Procedure, shortened: as §1

P12-Ichikawa [4] = assay: AUC of viability dose-response curve (% viability x log10 dose units); higher = less sensitive
Procedure, shortened: (§2)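 Seeding of medium-adapted leukemia cells was at 500 or 1000 cells/well in 1536-well plates, followed by 48 h at 37°C with library compounds in DMSO at 11 threefold doses from 47 μM to 0.79 nM. CellTiter-Glo One luminescence was normalised per plate to DMSO and cell-free wells and fitted as a four-parameter log-logistic function of log10 dose. Area under the curve was integrated by trapezoidal rule, with curves exceeding full viability scaled and curves failing quality control removed.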

NOMO1 [5] = assay: as above
Procedure, shortened: as §2

SEM cells [6] = assay: as above
Procedure, shortened: as §2

C[C@](O)(CS(=O)(=O)c1ccc(F)cc1)C(=O)Nc1ccc(C#N)c(C(F)(F)F)c1
cell viability [%]
Conditions | NOMO1 [2] | P12-Ichikawa [1] | SEM cells [3]
HPLM + 10% dialyzed FBS, 0.000781 µM | 106 | 97.6 | 93.9
HPLM + 10% dialyzed FBS, 0.00234 µM | 100 | 115 | 108
HPLM + 10% dialyzed FBS, 0.00702 µM | 111 | 110 | 104
HPLM + 10% dialyzed FBS, 0.0211 µM | 121 | 120 | 89.4
HPLM + 10% dialyzed FBS, 0.0632 µM | 126 | 115 | 116
HPLM + 10% dialyzed FBS, 0.19 µM | 128 | 115 | 112
HPLM + 10% dialyzed FBS, 0.569 µM | 104 | 124 | 114
HPLM + 10% dialyzed FBS, 1.71 µM | 123 | 119 | 116
HPLM + 10% dialyzed FBS, 5.12 µM | 115 | 118 | 105
HPLM + 10% dialyzed FBS, 15.4 µM | 116 | 114 | 109
HPLM + 10% dialyzed FBS, 46.1 µM | 134 | 107 | 93.4
RPMI 5 mM glucose + 10% FBS, 0.000781 µM | 103 | 104 | 81.3
RPMI 5 mM glucose + 10% FBS, 0.00234 µM | 108 | 110 | 101
RPMI 5 mM glucose + 10% FBS, 0.00702 µM | 128 | 112 | 99.7
RPMI 5 mM glucose + 10% FBS, 0.0211 µM | 140 | 109 | 74.3
RPMI 5 mM glucose + 10% FBS, 0.0632 µM | 133 | 111 | 88.6
RPMI 5 mM glucose + 10% FBS, 0.19 µM | 141 | 108 | 97.2
RPMI 5 mM glucose + 10% FBS, 0.569 µM | 134 | 114 | 102
RPMI 5 mM glucose + 10% FBS, 1.71 µM | 128 | 110 | 88.4
RPMI 5 mM glucose + 10% FBS, 5.12 µM | 126 | 126 | 93
RPMI 5 mM glucose + 10% FBS, 15.4 µM | 133 | 119 | 91
RPMI 5 mM glucose + 10% FBS, 46.1 µM | 137 | 105 | 75.3
RPMI 5 mM glucose + 10% dialyzed FBS, 0.000781 µM | 112 | 102 | 105
RPMI 5 mM glucose + 10% dialyzed FBS, 0.00234 µM | 119 | 118 | 113
RPMI 5 mM glucose + 10% dialyzed FBS, 0.00702 µM | 132 | 126 | 116
RPMI 5 mM glucose + 10% dialyzed FBS, 0.0211 µM | 135 | 130 | 73.4
RPMI 5 mM glucose + 10% dialyzed FBS, 0.0632 µM | 127 | 122 | 119
RPMI 5 mM glucose + 10% dialyzed FBS, 0.19 µM | 124 | 120 | 111
RPMI 5 mM glucose + 10% dialyzed FBS, 0.569 µM | 129 | 132 | 132
RPMI 5 mM glucose + 10% dialyzed FBS, 1.71 µM | 131 | 120 | 122
RPMI 5 mM glucose + 10% dialyzed FBS, 5.12 µM | 129 | 130 | 96.1
RPMI 5 mM glucose + 10% dialyzed FBS, 15.4 µM | 120 | 113 | 97.5
RPMI 5 mM glucose + 10% dialyzed FBS, 46.1 µM | 131 | 101 | 72.7

AUC of viability dose-response curve
Conditions | NOMO1 [5] | P12-Ichikawa [4] | SEM cells [6]
HPLM + 10% dialyzed FBS | 443 | 472 | 461
RPMI 5 mM glucose + 10% FBS | 460 | 463 | 433
RPMI 5 mM glucose + 10% dialyzed FBS | 470 | 470 | 444

CN(C)[S+](=O)([O-])c1ccc2c(c1)C(=Cc1cc3c([nH]1)CCCC3)C(=O)N2
cell viability [%]
Conditions | NOMO1 [2] | P12-Ichikawa [1] | SEM cells [3]
HPLM + 10% dialyzed FBS, 0.000781 µM | 124 | 124 | 112
HPLM + 10% dialyzed FBS, 0.00234 µM | 141 | 114 | 115
HPLM + 10% dialyzed FBS, 0.00702 µM | 122 | 122 | 112
HPLM + 10% dialyzed FBS, 0.0211 µM | 128 | 121 | 114
HPLM + 10% dialyzed FBS, 0.0632 µM | 130 | 123 | 128
HPLM + 10% dialyzed FBS, 0.19 µM | 122 | 117 | 129
HPLM + 10% dialyzed FBS, 0.569 µM | 122 | 125 | 130
HPLM + 10% dialyzed FBS, 1.71 µM | 146 | 122 | 116
HPLM + 10% dialyzed FBS, 5.12 µM | 120 | 111 | 114
HPLM + 10% dialyzed FBS, 15.4 µM | 127 | 110 | 85.7
HPLM + 10% dialyzed FBS, 46.1 µM | 118 | 112 | 111
RPMI 5 mM glucose + 10% FBS, 0.000781 µM | 125 | – | 90.5
RPMI 5 mM glucose + 10% FBS, 0.00234 µM | 112 | – | 98.6
RPMI 5 mM glucose + 10% FBS, 0.00702 µM | 121 | – | 109
RPMI 5 mM glucose + 10% FBS, 0.0211 µM | 115 | – | 103
RPMI 5 mM glucose + 10% FBS, 0.0632 µM | 109 | – | 118
RPMI 5 mM glucose + 10% FBS, 0.19 µM | 115 | – | 113
RPMI 5 mM glucose + 10% FBS, 0.569 µM | 123 | – | 118
RPMI 5 mM glucose + 10% FBS, 1.71 µM | 111 | – | 113
RPMI 5 mM glucose + 10% FBS, 5.12 µM | 113 | – | 112
RPMI 5 mM glucose + 10% FBS, 15.4 µM | 108 | – | 78.5
RPMI 5 mM glucose + 10% FBS, 46.1 µM | 105 | – | 94.7
RPMI 5 mM glucose + 10% dialyzed FBS, 0.000781 µM | – | 118 | 116
RPMI 5 mM glucose + 10% dialyzed FBS, 0.00234 µM | – | 125 | 115
RPMI 5 mM glucose + 10% dialyzed FBS, 0.00702 µM | – | 121 | 127
RPMI 5 mM glucose + 10% dialyzed FBS, 0.0211 µM | – | 116 | 120
RPMI 5 mM glucose + 10% dialyzed FBS, 0.0632 µM | – | 114 | 120
RPMI 5 mM glucose + 10% dialyzed FBS, 0.19 µM | – | 125 | 108
RPMI 5 mM glucose + 10% dialyzed FBS, 0.569 µM | – | 128 | 132
RPMI 5 mM glucose + 10% dialyzed FBS, 1.71 µM | – | 124 | 123
RPMI 5 mM glucose + 10% dialyzed FBS, 5.12 µM | – | 122 | 113
RPMI 5 mM glucose + 10% dialyzed FBS, 15.4 µM | – | 106 | 72.9
RPMI 5 mM glucose + 10% dialyzed FBS, 46.1 µM | – | 108 | 116

AUC of viability dose-response curve
Conditions | NOMO1 [5] | P12-Ichikawa [4] | SEM cells [6]
HPLM + 10% dialyzed FBS | 467 | 467 | 462
RPMI 5 mM glucose + 10% FBS | 453 | 464 | 462
RPMI 5 mM glucose + 10% dialyzed FBS | 455 | 468 | 459

COc1cc(F)c(F)c(Nc2ccc(I)cc2F)c1N[S+](=O)([O-])C1(C[C@H](O)CO)CC1
cell viability [%]
Conditions | NOMO1 [2] | P12-Ichikawa [1] | SEM cells [3]
HPLM + 10% dialyzed FBS, 0.000781 µM | 111 | 114 | 102
HPLM + 10% dialyzed FBS, 0.00234 µM | 119 | 107 | 108
HPLM + 10% dialyzed FBS, 0.00702 µM | 117 | 110 | 122
HPLM + 10% dialyzed FBS, 0.0211 µM | 113 | 116 | 106
HPLM + 10% dialyzed FBS, 0.0632 µM | 116 | 111 | 111
HPLM + 10% dialyzed FBS, 0.19 µM | 113 | 112 | 103
HPLM + 10% dialyzed FBS, 0.569 µM | 101 | 110 | 105
HPLM + 10% dialyzed FBS, 1.71 µM | 113 | 108 | 89.9
HPLM + 10% dialyzed FBS, 5.12 µM | 99.3 | 106 | 117
HPLM + 10% dialyzed FBS, 15.4 µM | 91.8 | 89 | 104
HPLM + 10% dialyzed FBS, 46.1 µM | 57 | 42.7 | 60.2
RPMI 5 mM glucose + 10% FBS, 0.000781 µM | 104 | 110 | 111
RPMI 5 mM glucose + 10% FBS, 0.00234 µM | 95.3 | 123 | 109
RPMI 5 mM glucose + 10% FBS, 0.00702 µM | 94.9 | 128 | 121
RPMI 5 mM glucose + 10% FBS, 0.0211 µM | 99.4 | 113 | 112
RPMI 5 mM glucose + 10% FBS, 0.0632 µM | 99.5 | 112 | 119
RPMI 5 mM glucose + 10% FBS, 0.19 µM | 102 | 104 | 126
RPMI 5 mM glucose + 10% FBS, 0.569 µM | 92.5 | 115 | 97.9
RPMI 5 mM glucose + 10% FBS, 1.71 µM | 111 | 118 | 120
RPMI 5 mM glucose + 10% FBS, 5.12 µM | 93.2 | 115 | 109
RPMI 5 mM glucose + 10% FBS, 15.4 µM | 87.9 | 96.4 | 83.6
RPMI 5 mM glucose + 10% FBS, 46.1 µM | 86.5 | 74.8 | 15.3
RPMI 5 mM glucose + 10% dialyzed FBS, 0.000781 µM | 112 | 123 | 110
RPMI 5 mM glucose + 10% dialyzed FBS, 0.00234 µM | 110 | 120 | 105
RPMI 5 mM glucose + 10% dialyzed FBS, 0.00702 µM | 109 | 126 | 115
RPMI 5 mM glucose + 10% dialyzed FBS, 0.0211 µM | 115 | 118 | 115
RPMI 5 mM glucose + 10% dialyzed FBS, 0.0632 µM | 108 | 116 | 112
RPMI 5 mM glucose + 10% dialyzed FBS, 0.19 µM | 106 | 104 | 117
RPMI 5 mM glucose + 10% dialyzed FBS, 0.569 µM | 110 | 118 | 104
RPMI 5 mM glucose + 10% dialyzed FBS, 1.71 µM | 122 | 122 | 102
RPMI 5 mM glucose + 10% dialyzed FBS, 5.12 µM | 106 | 123 | 106
RPMI 5 mM glucose + 10% dialyzed FBS, 15.4 µM | 88.8 | 97.3 | 103
RPMI 5 mM glucose + 10% dialyzed FBS, 46.1 µM | 71.9 | 58.2 | 50.4

AUC of viability dose-response curve
Conditions | NOMO1 [5] | P12-Ichikawa [4] | SEM cells [6]
HPLM + 10% dialyzed FBS | 449 | 450 | 465
RPMI 5 mM glucose + 10% FBS | 455 | 461 | 443
RPMI 5 mM glucose + 10% dialyzed FBS | 457 | 456 | 461
